Test results taken from patent US4496576A, “Compositions of p-hydroxybenzoic acid esters and methods of preparation and use” (priority 1983, dated 1985).
Converted amounts (≈) assume the structure as drawn. Like-named read-outs stand apart in the source and are kept apart here.

Tests used:
[1] = test system: Bacillus subtilis ATCC 6633; assay: minimum inhibitory concentration (agar plate growth inhibition); type: cell-based
Protocol: (§1) The mixture or composition prepared as in Example 1 was tested to determine the minimum inhibitory concentration (MIC) of the composition against various microorganisms (i.e., bacteria, yeast and fungi) according to the following procedure:
(§2) (1) Tryptic Soy Agar (TSA) was prepared according to the manufacturer's directions by suspending 40 g TSA in cold deionized water (1 liter). The suspension was heated to boiling in order to dissolve completely and then autoclaved for 15 minutes at 15 pounds pressure at 121° C.
(§3) (2) After autoclaving, the media was cooled to 45° C. in a water bath.
(§4) (3) At this point, the mixture was aseptically added to the TSA at different levels in order to obtain the desired test concentrations.
(§5) (1) The bacteria and yeast inoculum consisted of 0.1 ml of a 1:100 saline dilution of an overnight TSB broth culture (10-10 CFU/ml). CFU=Colony Forming Units.
(§6) (3) A sterile Dacron swab was used to spread the inoculum evenly over the entire agar surface.
(§7) (1) The bacteria and yeast plates were incubated at 35° C. for 48 hours.

[2] = test system: Candida albicans ATCC 10231; assay: as above; type: cell-based
Protocol: as §1, §2, §3, §4, §5, §6, §7

[3] = test system: Enterobacter cloacae ATCC 23355; assay: as above; type: cell-based
Protocol: as §1, §2, §3, §4, §5, §6, §7

[4] = test system: Escherichia coli ATCC 8739; assay: as above; type: cell-based
Protocol: as §1, §2, §3, §4, §5, §6, §7

[5] = test system: Klebsiella pneumoniae ATCC 8308; assay: as above; type: cell-based
Protocol: as §1, §2, §3, §4, §5, §6, §7

[6] = test system: Proteus vulgaris ATCC 13315; assay: as above; type: cell-based
Protocol: as §1, §2, §3, §4, §5, §6, §7

[7] = test system: Pseudomonas aeruginosa ATCC 13388; assay: as above; type: cell-based
Protocol: as §1, §2, §3, §4, §5, §6, §7

[8] = test system: Pseudomonas aeruginosa ATCC 14502; assay: as above; type: cell-based
Protocol: as §1, §2, §3, §4, §5, §6, §7

[9] = test system: Pseudomonas aeruginosa ATCC 15442; assay: as above; type: cell-based
Protocol: as §1, §2, §3, §4, §5, §6, §7

[10] = test system: Pseudomonas aeruginosa ATCC 9027; assay: as above; type: cell-based
Protocol: as §1, §2, §3, §4, §5, §6, §7

Pseudomonas stutzeri = assay: as above; type: cell-based; conditions: Stutzerimonas stutzeri, 48 h
Protocol: as §1, §2, §3, §4, §5, §6, §7

Saccharomyces cerevisiae = assay: as above; type: cell-based; conditions: 48 h
Protocol: as §1, §2, §3, §4, §5, §6, §7

[11] = test system: Salmonella typhosa ATCC 6539; assay: as above; type: cell-based; conditions: Salmonella enterica, 48 h
Protocol: as §1, §2, §3, §4, §5, §6, §7

[12] = test system: Serratia marcescens ATCC 8100; assay: as above; type: cell-based
Protocol: as §1, §2, §3, §4, §5, §6, §7

[13] = test system: Staphylococcus aureus ATCC 6538; assay: as above; type: cell-based
Protocol: as §1, §2, §3, §4, §5, §6, §7

[14] = test system: Staphylococcus epidermidis ATCC 1228; assay: as above; type: cell-based
Protocol: as §1, §2, §3, §4, §5, §6, §7

Streptococcus faecalis = assay: as above; type: cell-based; conditions: Enterococcus faecalis, 48 h
Protocol: as §1, §2, §3, §4, §5, §6, §7

[15] = test system: Aspergillus niger ATCC 9642; assay: as above; type: cell-based
Protocol: as §1, §2, §3, §4
(§8) (2) The fungus inoculum consisted of 0.1 ml of a spore-saline suspension harvested by gently rubbing the spores from a 1-week old Sabourand dextrose agar slant incubated at 25° C. with sterile saline (10-10 CFU/ml).
as §6
(§9) (2) The fungus plates were incubated at 30° C. for 72-96 hours.

[16] = test system: Penicillium chrysogenum ATCC 9480; assay: as above; type: cell-based
Protocol: as §1, §2, §3, §4, §8, §6, §9

[17] = test system: Trichophyton mentagrophytes; assay: as above; type: cell-based
Protocol: as §1, §2, §3, §4, §8, §6, §9

physchem = conditions: water
[18] = ATCC6633, TSA, 35° C., 48 h, read-out: MIC
[19] = ATCC10231, TSA, 35° C., 48 h, read-out: MIC
[20] = ATCC23355, TSA, 35° C., 48 h, read-out: MIC
[21] = ATCC8739, TSA, 35° C., 48 h, read-out: MIC
[22] = ATCC8308, TSA, 35° C., 48 h, read-out: MIC
[23] = ATCC13315, TSA, 35° C., 48 h, read-out: MIC
[24] = ATCC13388, TSA, 35° C., 48 h, read-out: MIC
[25] = ATCC14502, TSA, 35° C., 48 h, read-out: MIC
[26] = ATCC15442, TSA, 35° C., 48 h, read-out: MIC
[27] = ATCC9027, TSA, 35° C., 48 h, read-out: MIC
[28] = ATCC8100, TSA, 35° C., 48 h, read-out: MIC
[29] = ATCC6538, TSA, 35° C., 48 h, read-out: MIC
[30] = ATCC1228, TSA, 35° C., 48 h, read-out: MIC
[31] = ATCC9642, TSA, 30° C., 72-96 h, read-out: MIC
[32] = ATCC9480, TSA, 30° C., 72-96 h, read-out: MIC
[33] = TSA, 30° C., 72-96 h, read-out: MIC

| Compound | MIC [1, 18] | MIC [2, 19] | MIC [3, 20] | MIC [4, 21] | MIC [5, 22] | MIC [6, 23] | MIC [7, 24] | MIC [8, 25] | MIC [9, 26] | MIC [10, 27] | MIC (Pseudomonas stutzeri; TSA, 35° C., read-out: MIC) | MIC (Saccharomyces cerevisiae; TSA, 35° C., read-out: MIC) | MIC [11] | MIC [12, 28] | MIC [13, 29] | MIC [14, 30] | MIC (Streptococcus faecalis; TSA, 35° C., read-out: MIC) | MIC [15, 31] | MIC [16, 32] | MIC [17, 33] | further results |
| --- | --- | --- | --- | --- | --- | --- | --- | --- | --- | --- | --- | --- | --- | --- | --- | --- | --- | --- | --- | --- | --- |
| CC(C)OC(=O)c1ccc(O)cc1 [Isopropyl p-Hydroxybenzoate, isopropyl p-hydroxybenzoate] | 500 µg/mL (≈ 2770 µM) | 250 µg/mL (≈ 1390 µM) | 1000 µg/mL (≈ 5550 µM) | 1000 µg/mL (≈ 5550 µM) | 500 µg/mL (≈ 2770 µM) | 500 µg/mL (≈ 2770 µM) | > 2000 µg/mL | > 2000 µg/mL | > 2000 µg/mL | 2000 µg/mL (≈ 11100 µM) | 1000 µg/mL (≈ 5550 µM) | < 125 µg/mL | 1000 µg/mL (≈ 5550 µM) | 1000 µg/mL (≈ 5550 µM) | 1000 µg/mL (≈ 5550 µM) | 500 µg/mL (≈ 2770 µM) | 1000 µg/mL (≈ 5550 µM) | 250 µg/mL (≈ 1390 µM) | < 125 µg/mL | < 125 µg/mL | solubility (physchem): 800 µg/mL (≈ 4440 µM) |
| CC(C)COC(=O)c1ccc(O)cc1 [Isobutyl p-Hydroxybenzoate, isobutyl p-hydroxybenzoate] | 250 µg/mL (≈ 1290 µM) | 125 µg/mL (≈ 644 µM) | 1000 µg/mL (≈ 5150 µM) | > 1000 µg/mL | 500 µg/mL (≈ 2570 µM) | 250 µg/mL (≈ 1290 µM) | > 1000 µg/mL | > 1000 µg/mL | > 1000 µg/mL | > 1000 µg/mL | > 1000 µg/mL | 125 µg/mL (≈ 644 µM) | 1000 µg/mL (≈ 5150 µM) | 1000 µg/mL (≈ 5150 µM) | 250 µg/mL (≈ 1290 µM) | 250 µg/mL (≈ 1290 µM) | 500 µg/mL (≈ 2570 µM) | 250 µg/mL (≈ 1290 µM) | 125 µg/mL (≈ 644 µM) | 63 µg/mL (≈ 324 µM) | solubility (physchem): 200 µg/mL (≈ 1030 µM) |
| CCCCOC(=O)c1ccc(O)cc1 [n-Butyl p-Hydroxybenzoate, n-butyl p-hydroxybenzoate] |  |  |  |  |  |  |  |  |  |  |  |  | 500 µg/mL (≈ 2570 µM) |  |  |  |  |  |  |  | MIC ([1]; ATCC6633, 48 h): 250 µg/mL (≈ 1290 µM); MIC ([2]; ATCC10231, 48 h): 125 µg/mL (≈ 644 µM); MIC ([3]; ATCC23355, 48 h): 250 µg/mL (≈ 1290 µM); MIC ([4]; ATCC8739, 48 h): 500 µg/mL (≈ 2570 µM); MIC ([5]; ATCC8308, 48 h): 250 µg/mL (≈ 1290 µM); MIC ([6]; ATCC13315, 48 h): 125 µg/mL (≈ 644 µM); MIC ([7]; ATCC13388, 48 h): > 6000 µg/mL; MIC ([8]; ATCC14502, 48 h): > 6000 µg/mL; MIC ([9]; ATCC15442, 48 h): > 6000 µg/mL; MIC ([10]; ATCC9027, 48 h): > 6000 µg/mL; MIC (Pseudomonas stutzeri): 500 µg/mL (≈ 2570 µM); MIC (Saccharomyces cerevisiae): 32 µg/mL (≈ 165 µM); MIC ([12]; ATCC8100, 48 h): 500 µg/mL (≈ 2570 µM); MIC ([13]; ATCC6538, 48 h): 125 µg/mL (≈ 644 µM); MIC ([14]; ATCC1228, 48 h): 250 µg/mL (≈ 1290 µM); MIC (Streptococcus faecalis): 250 µg/mL (≈ 1290 µM); MIC ([15]; ATCC9642): 125 µg/mL (≈ 644 µM); MIC ([16]; ATCC9480): 63 µg/mL (≈ 324 µM); MIC [17]: 32 µg/mL (≈ 165 µM); solubility (water solubility): 150 µg/mL (≈ 772 µM) |
